These results are taken from patent publication US20040127549A1, “Cyclic 2-carbonylaminoketones as inhibitors of cruzipain and other cysteine proteases” (priority 2001, published 2004).

In one test the target is T1, Cruzipain (Trypanosoma cruzi, UniProt P25779).
T1 construct: Wild-type cruzipain, derived from Trypanosoma cruzi Dm28 epimastigotes, was obtained from Dr. Julio Scharfstein; tissue Dr. Julio Scharfstein (Instituto de Biofisica Carlos Chagas Filho, Universidade Federal do Rio de Janeiro); host or cells: Trypanosoma cruzi Dm28 epimastigotes
T1 sequence (P25779 123-467): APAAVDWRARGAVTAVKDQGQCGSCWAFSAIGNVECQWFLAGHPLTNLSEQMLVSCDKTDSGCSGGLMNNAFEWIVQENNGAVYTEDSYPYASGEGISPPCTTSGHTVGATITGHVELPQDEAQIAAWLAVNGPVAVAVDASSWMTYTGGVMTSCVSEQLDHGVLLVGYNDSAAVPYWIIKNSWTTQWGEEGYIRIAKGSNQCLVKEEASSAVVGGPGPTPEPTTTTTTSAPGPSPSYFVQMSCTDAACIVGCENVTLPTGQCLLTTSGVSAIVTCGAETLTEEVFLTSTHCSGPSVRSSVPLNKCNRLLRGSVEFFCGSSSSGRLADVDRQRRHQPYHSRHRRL
The experiment in a line: Trypanosoma cruzi cruzipain peptidase activity assay (Ki). Format: biochemical. The note with it: wild-type cruzipain, pH 6.75, 25±1° C. The protocol:
(§1) Assay protocols were based on literature precedent (Tablel; Barrett, A. J., Rawlings, N. D. and Woessner, J. F., 1998, Handbook of Proteolytic Enzymes, Academic Press, London and references therein) and modified as required to suit local assay protocols. Enzyme was added as required to initiate the reaction and the activity, as judged by the change in fluorescence upon conversion of substrate to product, was monitored over time. All assays were carried out at 25±1° C.
Wild-type cruzipain, derived from Trypanosoma cruzi Dm28 epimastigotes, was obtained from Dr. Julio Scharfstein (Instituto de Biofisica Carlos Chagas Filho, Universidade Federal do R10 de Janeiro, R10 de Janeiro, Brazil). Activity assays were carried out in 100 mM sodium phosphate, pH 6.75 containing 1 mM EDTA and 10 mM L-cysteine using 2.5 nM enzyme. Ac-Phe-Arg-AMC (KM^app≈12 1M) and D-Val-Leu-Lys-AMC (KM^app≈4 1M) were used as the substrates. Routinely, Ac-FR-AMC was used at a concentration equivalent to KM^app and D-Val-Leu-Lys-AMC was used at a concentration of 25 μM. The rate of conversion of substrate to product was derived from the slope of the increase in fluorescence monitored continuously over time.
The apparent inhibition constant (Ki) for each compound was determined on the basis that inhibition was reversible and occurred by a pure-competitive mechanism. The Ki values were calculated, from the dependence of enzyme activity as a function of inhibitor concentration, by direct regression analysis (Prism v 3.02) using Equation 2 (Cornish-Bowden, A., 1995.). [formula] […]
(§2) In situations where the apparent dissociation constant (Ki^app) approached the enzyme concentrations, the Ki^app values were calculated using a quadratic solution in the form described by Equation 3 (Morrison, J. F. Trends Biochem. Sci., 7, 102-105, 1982; Morrison, J. F. Biochim. Biophys. Acta, 185, 269-286, 1969; Stone, S.R. and Hofsteenge, J. Biochemistry, 25, 4622-4628, 1986). […]

The target in the next test is T2, Bovine Cathepsin S (Bos taurus, UniProt P25326).
T2 construct: purchased CN Biosciences
T2 sequence (P25326 115-331): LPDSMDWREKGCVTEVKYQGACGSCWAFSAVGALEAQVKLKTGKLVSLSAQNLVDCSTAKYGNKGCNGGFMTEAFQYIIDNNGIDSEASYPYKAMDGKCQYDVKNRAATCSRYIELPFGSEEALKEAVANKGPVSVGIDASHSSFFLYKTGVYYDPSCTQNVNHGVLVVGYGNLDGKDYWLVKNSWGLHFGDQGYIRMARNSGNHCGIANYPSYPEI
The experiment in a line: Cathepsin peptidase activity assay (Ki), bovine cathepsin S. The note with it: pH 6.5, 25±1° C. Format: biochemical. On the procedure:
as §1
(§3) Bovine cathepsin S, human cathepsin L, human cathepsin H and human cathepsin B were obtained from CN Biosciences. Recombinant human cathepsin S, human cathepsin K and human cathepsin X were obtained from Dr. Boris Turk (Josef Stefan Institute, Ljubljana, Slovenia). Unless otherwise stated, all peptidase activity assays were carried out in 10 mM bis-tris-propane (BTP), pH 6.5 containing 1 mM EDTA, 5 mM 2-mercaptoethanol and 1 mM CaCl2. Human cathepsin H activity assays were carried out in 10 mM BTP pH 6.5, 142 MM NaCl2 1 mM CaCl2, 1 mM EDTA, 1 mM DTr, 0.035 mM Zwittergent 3-16. […] The rate of conversion of substrate to product was derived from the slope of the increase in fluorescence monitored continuously over time.
(§4) The apparent inhibition constant (Ki) for each compound was determined on the basis that inhibition was reversible and occurred by a pure-competitive mechanism. The Ki values were calculated, from the dependence of enzyme activity as a function of inhibitor concentration, by direct regression analysis (Prism v 3.02) using Equation 2 (Cornish-Bowden, A., 1995.). […]
as §2

The target in the next test is T3, Human Cathepsin L (Homo sapiens, UniProt P07711).
T3 construct: purchased CN Biosciences
T3 sequence (P07711 114-333): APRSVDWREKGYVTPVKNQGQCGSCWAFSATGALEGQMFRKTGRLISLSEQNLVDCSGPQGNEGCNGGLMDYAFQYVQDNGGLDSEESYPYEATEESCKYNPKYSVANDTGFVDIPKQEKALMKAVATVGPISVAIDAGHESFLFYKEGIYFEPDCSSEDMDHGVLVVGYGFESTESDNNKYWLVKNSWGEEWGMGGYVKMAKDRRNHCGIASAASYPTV
The experiment in a line: Cathepsin peptidase activity assay (Ki), human cathepsin L. Format: biochemical. The following applies: pH 6.5, 25±1° C. On the procedure:
as §1, §3, §4, §2

For another test, the target named is T4, Human Cathepsin K (Homo sapiens, UniProt P43235).
T4 construct: purchased Dr. Boris Turk (Josef Stefan Institute, Ljubljana, Slovenia)
T4 sequence (P43235 115-329): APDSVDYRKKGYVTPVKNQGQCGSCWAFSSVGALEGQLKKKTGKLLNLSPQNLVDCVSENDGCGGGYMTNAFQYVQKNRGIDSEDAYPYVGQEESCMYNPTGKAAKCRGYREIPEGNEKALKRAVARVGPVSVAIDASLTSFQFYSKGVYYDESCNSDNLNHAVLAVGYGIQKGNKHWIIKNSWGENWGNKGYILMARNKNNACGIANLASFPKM
The experiment in a line: Cathepsin peptidase activity assay (Ki), human cathepsin K. The note with it: pH 5.5, 25±1° C. Format: biochemical. On the procedure:
as §1, §3, §4, §2

Test [1] deals with Trypanosoma cruzi-infected mammalian cell cultures. The note with it: addition to infected mammalian cell cultures; cited from earlier work.
For test [2], the system named is Trypanosoma cruzi infection. The following applies: acute phase of infection; cited from earlier work.

With `C[C@H]1OCC(=O)[C@]1(C)NC(=O)[C@H](Cc1ccc(O)cc1)NC(=O)c1csc(-c2cccnc2)n1` [Example 6, (2R, 3R) 2-Pyridin-3-yl-thiazole4-carboxylic acid [1-(2,3-dimethyl-4oxo-tetrahydrofuran-3-ylcarbamoyl)-2-(4-hydroxyphenyl)-ethyl]-amide], the Ki on Cruzipain was below 2 µM; on Bovine Cathepsin S, above 50 µM; at Human Cathepsin L, above 50 µM; at Human Cathepsin K, above 100 µM.
`C[C@H]1OCC(=O)[C@]1(C)NC(=O)[C@H](CC1CCCCC1)NC(=O)c1ccoc1` [Example 19, (2R, 3R) Furan-3-carboxylic acid [2-cyclohexyl-1-(2,3-dimethyl-oxo-tetrahydrofuran-3-ylcaxbamoyl)-ethyl]-amide]: the Ki at Cruzipain is above 50 µM; at Bovine Cathepsin S, below 2 µM; on Human Cathepsin L, above 50 µM; at Human Cathepsin K it was above 50 µM.
In the case of `C[C@H]1OCC(=O)[C@]1(C)NC(=O)[C@H](Cc1ccc(O)cc1)NC(=O)c1cccc2ccccc12` [Example 27, (2R, 3R) Naphthalene-1-carboxylic acid [1-(2,3-dimethyl-4-oxo-tetrahydrofuran-3-ylcarbamoyl)-2-(4-hydroxyphenyl)-ethyl]-amide], the Ki is above 20 µM at Cruzipain, above 50 µM at Bovine Cathepsin S, below 5 µM on Human Cathepsin L and above 100 µM on Human Cathepsin K.
For the compound `CC(NC(=O)C(Cc1ccccc1)NC(=O)OCc1ccccc1)C(=O)CF` (stereo not drawn) [Z-Phe-Ala-FMK], in test [1], the “effect on parasite replication and differentiation” value is “blocked replication and differentiation of the parasite”.
`O=C(Cn1ccnc1[N+](=O)[O-])NCc1ccccc1` [benznidazole]: in test [2], the cure is listed as 60%.

For orientation: Ki means the equilibrium dissociation constant of an inhibitor or competing ligand from its target.
